In patent EP4108244A1, “SS-LACTAM ANTIBIOTIC WITH SIGNIFICANT ACTIVITY AGAINST CANCER E.G. COLON MALIGNANCIES” (priority 2021, dated 2022):

How the values were obtained:
[1] = Body weight and survival in the xenograft model; type: in vivo, NOD/SCID mice
Protocol: (§1) Twelve NOD/SCID mice were randomly distributed into two groups (6 mice/group). HCT-116 colon cancer cells (3.5 million) suspended in sterile physiological solution (0.9% NaCl) were injected subcutaneously into the flank of 4 to 6-week old mice. Animals were kept in a light- and temperature-controlled environment and provided with food and water ad libitum. The tumor size was monitored and determined three times per week using a sterile Vernier caliper. Tumor volume was calculated by the following formula: Volume=π/6^∗(length × width × height). Once the tumor size reached seven mm^3, mice were treated three times per week for 21 days with intraperitoneal injections of vehicle (control group) or ceftazidime (10 mg/mouse). Growth delay was assessed by comparing the size of tumors in treated animals to those of control animals. Ethical approval was obtained before the beginning of the experiments.

[2] = Stability in media, LC-MS/MS; type: physicochemical; details: antibiotic alone (CFP 50 µg/mL, CFT 100 µg/mL)
Protocol: B) CFT (100 µg/ml) ± 5-FU (8 µM and 16 µM). P value (a) (between antibiotic alone and 5-FU (8 µM)); P value (b) (between antibiotic alone and 5-FU (16 µM)), n = 3.

[3] = tested on: HCT-116 cells; assay: Xenograft model of colon cancer cells, tumor growth; type: in vivo, NOD/SCID mice
Protocol: as §1, with “Once the tumor size reached seven mm^3, mice were treated three times per week for 21 days with intraperitoneal injections of vehicle (control group) or ceftazidime (10 mg/mouse).” left out

[4] = three weeks post-treatment, 10mg/mouse intraperitoneal three times per week

## CC(C)(O/N=C(\C(=O)N[C@@H]1C(=O)N2C(C(=O)[O-])=C(C[n+]3ccccc3)CS[C@H]12)c1csc(N)n1)C(=O)O [CFT, (6R,7R)-7-[[(2Z)-2-(2-amino-1,3-thiazol-4-yl)-2-(2-carboxypropan-2-yloxyimino)acetyl]amino]-8-oxo-3-(pyridin-1-ium-1-ylmethyl)-5-thia-1-azabicyclo[4.2.0]oct-2-ene-2-carboxylate]
[1]; after three weeks of treatment
  weight lost: 6.8%
[1]; after three weeks of treatment, 10 mg/mouse
  body weight: 19.8 g
[1]; day of the first treatment
  average weight of the mice: 21.3 g
[1]; three weeks of treatment
  mortality (in words): none of the animals died
[1]; vs. control animals, three weeks
  protective effect on body weight: 58%
[2]; 2h in media
  Stability test, level in media: 104.4 ± 2.5
[2]; 8h in media
  Stability test, level in media: 103.4 ± 10.8
[3]; mice exposed for three weeks, then treatment stopped
  tumor growth after stopping treatment (in words): the tumor did not grow further
[3]; [4]
  inhibition of tumor volume vs. control group: 95%
  tumor size (volume of xenografts): 45.3 mm^3
[3]; treatment started when tumor volume was around 990 mm^3, vs. control untreated mice
  inhibition of tumor volume, already established tumors: around 50%
